Data on 34 molecules can be found in patent publication US7923461B2, “TNF-α production inhibitors” (Santen Pharmaceutical Co., Ltd., priority 2000, dated 2011).

Each structure is given as a SMILES string. Counter-ions that a name gives are not always drawn.

The test system of one data set is TNF-α production. The experiment in a line: Inhibitory effects on TNF-α production induced by lipopolysaccharide (LPS) stimulation, in vivo test. The settings on record: female rats, plasma TNF-α (ELISA) two hours after LPS; for inhibition in vivo at 3 mg/kg / inhibition in vivo at 10 mg/kg: Rattus norvegicus, 2 h, read-out: Inhibition rate (%) of TNF-α production; for inhibition in vivo at 3 mg/kg / Inhibition rate (%) of TNF-α production: oral administration of 3 mg/kg immediately after LPS to footpad; for inhibition in vivo at 10 mg/kg: oral administration of 10 mg/kg immediately after LPS to footpad. Details: species or system rat. How it is done: Inhibitory effects on TNF-α production induced by lipopolysaccharide (LPS) stimulation were studied by in vivo tests according to the method of Tsuji et al. (Inflamm res. 46 (1997) 193-198).
Female rats (five per group), body weight of about 200 g, about eight weeks old, were used as test animals. LPS from Salmonella was dissolved in physiological saline to prepare an LPS solution (1 mg/ml). Each test substance was dissolved or uniformly suspended in a 1% methylcellulose solution to give test substance-preparation liquids.
The above-mentioned LPS solution (0.5 ml/kg) was administered to a footpad of the rat. Immediately after the LPS administration, the test substance-preparation liquid (containing 10 mg/kg or 3 mg/kg test substance) was orally administered. Two hours after the LPS administration, blood was collected from abdominal aorta and was centrifuged at 4° C. and 3000 rpm for ten minutes. TNF-α levels in the obtained plasma were measured with a rat TNF-α-specific ELISA kit. TNF-α was not observed in the plasma with respect to an LPS-non-administered group (control).
Inhibition rates of TNF-α production of the test substances were determined by the following equation. Inhibition rate (%)=[(A−B)/A]×100 A: TNF-α level in plasma of test substance-nonadministered group B: TNF-α level in plasma of test substance-administered group (Results)
(In general: In an ELISA, binding on a coated surface is turned into a signal by an enzyme label.)

The melting point is the temperature of the solid-liquid transition.

On to `CCCCCN(CCC12CC3CC(CC(C3)C1)C2)C(=O)NC[C@@H]1C[C@@H]1c1ccncc1` (relative stereo) [Compound No. 15-1, cis 1-[2-(1-Adamantyl)ethyl]-1-pentyl-3-[2-(4-pyridyl)cyclopropylmethyl]urea], for which the inhibition in vivo at 3 mg/kg in the data set on TNF-α production was determined as 73.8%. In the case of `CCCCCN(CCC12CC3CC(CC(C3)C1)C2)C(=O)NCC(C)Cc1ccncc1` (single isomer, unassigned; (-)) [Compound No. 1-120, (−)-1-[2-(1-Adamantyl)ethyl]-3-[2-methyl-3-(4-pyridyl)propyl]-1-pentylurea], the inhibition in vivo at 10 mg/kg in the data set with TNF-α production stood at 95.1%. Take `CCCCCN(CCC12CC3CC(CC(C3)C1)C2)C(=O)NCCCc1ccncc1` [Compound No. 1-1, 1-[2-(1-Adamantyl)ethyl]-1-pentyl-3-[3-(4-pyridyl)propyl]urea]: in the data set with TNF-α production, the inhibition in vivo at 10 mg/kg amounted to 92.1%. As to `CCCCN(CCCC)C(=O)NCCCc1ccncc1` [Compound No. 1-10, 1,1-Dibutyl-3-[3-(4-pyridyl)propyl]urea], the inhibition in vivo at 3 mg/kg in the data set on TNF-α production amounted to 63%. As for `N#CCN(CCC12CC3CC(CC(C3)C1)C2)C(=O)NCCCc1ccncc1` [Compound No. 1-20, 1-[2-(1-Adamantyl)ethyl]-1-cyanomethyl-3-[3-(4-pyridyl)propyl]urea], the inhibition in vivo at 10 mg/kg in the data set with TNF-α production came out at 60%. With `CN(CCN(CCC12CC3CC(CC(C3)C1)C2)C(=O)NCCCc1ccncc1)C(=O)OC(C)(C)C` [Compound No. 1-26, 1-[2-(1-Adamantyl)ethyl]-1-[2-[N-(t-butoxycarbonyl)-N-methylamino]ethyl]-3-[3-(4-pyridyl)propyl]urea], the inhibition in vivo at 10 mg/kg in the data set on TNF-α production was determined as 95.5%.

For the molecule `O=C(NCCCc1ccncc1)N(CCC12CC3CC(CC(C3)C1)C2)OCc1ccccc1` [Compound No. 1-28, 1-[2-(1-Adamantyl)ethyl]-1-benzyloxy-3-[3-(4-pyridyl)propyl]urea], in the data set with TNF-α production, the inhibition in vivo at 10 mg/kg amounted to 90.4%. Same read-out and setting: the value for `CCCN(CCCC12CC3CC(CC(C3)C1)C2)C(=O)NCCCc1ccncc1` [Compound No. 1-35, 1-[3-(1-Adamantyl)propyl]-1-propyl-3-[3-(4-pyridyl)propyl]urea] was 82.5%. With `Cc1nc(CN(CCC23CC4CC(CC(C4)C2)C3)C(=O)NCCCc2ccncc2)cs1` [Compound No. 1-37, 1-[2-(1-Adamantyl)ethyl]-1-(2-methylthiazol-4-yl)methyl-3-[3-(4-pyridyl)propyl]urea], the inhibition in vivo at 10 mg/kg in the data set with TNF-α production came to 84.3%. For `CCCCCN(CCCCC)C(=O)NCCCc1ccncc1` [Compound No. 1-38, 1,1-Dipentyl-3-[3-(4-pyridyl)propyl]urea], the inhibition in vivo at 10 mg/kg with TNF-α production stood at 92.3%.

`CCCCCN(CCC1CCCCC1)C(=O)NCCCc1ccncc1` [Compound No. 1-44, 1-(2-Cyclohexylethyl)-1-pentyl-3-[3-(4-pyridyl)propyl]urea]: the inhibition in vivo at 10 mg/kg in the data set on TNF-α production stood at 93.7%. With `CCCCCN(CCc1ccccc1)C(=O)NCCCc1ccncc1` [Compound No. 1-45, 1-Pentyl-1-phenethyl-3-[3-(4-pyridyl)propyl]urea], the inhibition in vivo at 10 mg/kg with TNF-α production was found to be 91.1%. Take `CCCCCN(CCc1ccccn1)C(=O)NCCCc1ccncc1` [Compound No. 1-55, 1-Pentyl-1-[2-(2-pyridyl)ethyl]-3-[3-(4-pyridyl)propyl]urea]: the inhibition in vivo at 10 mg/kg in the data set with TNF-α production is 78.1%. With `CCCCCN(CCN(C)C(=O)OCc1ccccc1)C(=O)NCCCc1ccncc1` [Compound No. 1-78, [2-(N-Benzyloxycarbonyl-N-methylamino)ethyl]-1-pentyl-3-[3-(4-pyridyl)propyl]urea], the “Inhibition rate (%) of TNF-α production” value in the data set with TNF-α production worked out at 61.5%.

As to `C=CCCCCCCN(CCCCCCC=C)C(=O)NCCCc1ccncc1` [Compound No. 1-95, 1,1-Di(7-octenyl)-3-[3-(4-pyridyl)propyl]urea], the inhibition in vivo at 3 mg/kg in the data set with TNF-α production was determined as 70.8%. Turning to `CCCCCN(CCC12CC3CC(CC(C3)C1)C2)C(=O)NC/C=C\c1ccncc1` [Compound No. 1-111, (Z)-1-[2-(1-Adamantyl)ethyl]-1-pentyl-3-[3-(4-pyridyl)-2-propenyl]urea], the inhibition in vivo at 3 mg/kg in the data set with TNF-α production amounted to 85.1%. Regarding `CCCN(CCC12CC3CC(CC(C3)C1)C2)C(=O)CCCCc1ccncc1` [Compound No. 2-1, 5-(4-Pyridyl)valeric acid N-[2-(1-adamantyl)ethyl]-N-propylamide], in the data set with TNF-α production, the inhibition in vivo at 10 mg/kg stood at 91.5%. For the molecule `CCCCCN(CC12CC3CC(CC(C3)C1)C2)C(=O)CCCCc1ccncc1` [Compound No. 2-3, 5-(4-Pyridyl)valeric acid N-(1-adamantyl)methyl-N-pentylamide], in the data set on TNF-α production, the inhibition in vivo at 10 mg/kg came out at 51.8%. As for `CN(CCN(CCC12CC3CC(CC(C3)C1)C2)C(=O)CCCCc1ccncc1)C(=O)OC(C)(C)C` [Compound No. 2-7, 5-(4-Pyridyl)valeric acid N-[2-(1-adamantyl)ethyl]-N-[2-[N-(tbutoxycarbonyl)-N′-methylamino]ethyl]amide], in the data set with TNF-α production, the “Inhibition rate (%) of TNF-α production” value was 78.7%. On to `CCCCCN(CCc1ccccc1)C(=O)CCCCc1ccncc1` [Compound No. 2-9, 5-(4-Pyridyl)valeric acid N-pentyl-N-phenethylamide], for which the inhibition in vivo at 3 mg/kg in the data set on TNF-α production worked out at 84.5%. Take `CCCCCN(CCC1CCCCC1)C(=O)CCCCc1ccncc1` [Compound No. 2-11, 5-(4-Pyridyl)valeric acid N-(2-cyclohexylethyl)-NY-pentylamide]: the “Inhibition rate (%) of TNF-α production” value in the data set with TNF-α production stood at 53.5%. Regarding `CCCCCN(CCC12CC3CC(CC(C3)C1)C2)C(=O)CCCCc1ccncc1` [Compound No. 2-14, 5-(4-Pyridyl)valeric acid N-[2-(1-adamantyl)ethyl]-N-pentylamide], the inhibition in vivo at 3 mg/kg in the data set on TNF-α production was found to be 87.3%. For the molecule `CCCCCN(CCC12CC3CC(CC(C3)C1)C2)C(=O)CCSCc1ccncc1` [Compound No. 2-15, 3-(4-Pyridylmethylthio)propionic acid N-[2-(1-adamantyl)ethyl]-N-pentylamide], the inhibition in vivo at 3 mg/kg with TNF-α production turned out to be 68.1%.

Consider `CCCCCN(CCC12CC3CC(CC(C3)C1)C2)C(=O)CSCCc1ccncc1` [Compound No. 2-18, 2-[2-(4-Pyridyl)ethylthio]acetic acid N-[2-(1-adamantyl)ethyl]-N-pentylamide], for which the inhibition in vivo at 3 mg/kg in the data set with TNF-α production stood at 87.3%. Same read-out and setting: the value for `CCCCCN(CCC12CC3CC(CC(C3)C1)C2)C(=O)CCCCCc1ccncc1` [Compound No. 2-20, 6-(4-Pyridyl)caproic acid N-[2-(1-adamantyl)ethyl]-N-pentylamide] was 82.1%; that for `CCCCCN(CCC12CC3CC(CC(C3)C1)C2)C(=O)C(N)CSCc1ccncc1` (stereo not shown) [Compound No. 3-4, 2-Amino-3-(4-pyridylmethylthio)propionic acid N-[2-(1-adamantyl)ethyl]-N-pentylamide dihydrochloride] was 76.1%. `CCCCCN(CCC12CC3CC(CC(C3)C1)C2)C(=O)NCCCc1cc[n+](C)cc1` [Compound No. 4-1, 4-[3-[3-[2-(1-Adamantyl)ethyl]-3-pentylureido]propyl]-1-methylpyridinium iodide]: the inhibition in vivo at 3 mg/kg with TNF-α production amounted to 42.8%. As for `CCCN(CCCC12CC3CC(CC(C3)C1)C2)C(=O)OCCCc1ccncc1` [Compound No. 5-3, 3-(4-Pyridyl)propyl N [3-(1-adamantyl)propyl]-N-propylcarbamate], the “Inhibition rate (%) of TNF-α production” value in the data set with TNF-α production was 49.4%.

Take `O=C(OCCCc1ccncc1)N(CCC(F)(F)F)CCC12CC3CC(CC(C3)C1)C2` [Compound No. 5-4, 3-(4-Pyridyl)propyl N-[2-(1-adamantyl)ethyl]-N-(3,3,3-trifluoropropyl)carbamate]: the inhibition in vivo at 3 mg/kg in the data set on TNF-α production came out at 62.6%. On to `CN(CCN(CCC12CC3CC(CC(C3)C1)C2)C(=O)OCCCc1ccncc1)C(=O)OC(C)(C)C` [Compound No. 5-5, 3-(4-Pyridyl)propyl N-[2-(1-adamantyl)ethyl]-N-[2-[N′-(tbutoxycarbonyl)-N′-methylamino]ethyl]carbamate], for which the “Inhibition rate (%) of TNF-α production” value in the data set with TNF-α production was 42.8%. With `CCCCCN(CCC12CC3CC(CC(C3)C1)C2)C(=O)OCC(C)Cc1ccncc1` (stereo not shown) [Compound No. 5-6, 2-Methyl-3-(4-pyridyl)propyl N-[2-(1-adamantyl)ethyl]-N-pentylcarbamate], the inhibition in vivo at 3 mg/kg in the data set on TNF-α production came out at 41.7%. With `O=C1CCN(CCC23CC4CC(CC(C4)C2)C3)C(=O)N1CCCc1ccncc1` [Compound No. 6-1, 1-[2-(1-Adamantyl)ethyl]-3-[3-(4-pyridyl)propyl]hexahydro-2,4-pyrimidinedione hydrochloride], the inhibition in vivo at 10 mg/kg in the data set on TNF-α production was 50.5%.

In the case of `CCCCCN(CCC12CC3CC(CC(C3)C1)C2)C(=S)NCCCc1ccncc1` [Compound No. 7-1, 1-[2-(1-Adamantyl)ethyl]-1-pentyl-3-[3-(4-pyridyl)propyl]thiourea], the inhibition in vivo at 10 mg/kg with TNF-α production was 71.5%. With `CCCN(CCCC12CC3CC(CC(C3)C1)C2)C(=O)NCCCc1ccncc1.O=P(O)(O)O` [Compound No. 13-10, 1-[3-(1-Adamantyl)propyl]-1-propyl-3-[3-(4-pyridyl)propyl]urea phosphate], the melting point is 148 to 149 °C.
